Source: patent publication US20080248112A1 (priority 2007, published 2008)
Entries after “also recorded” stand apart in the source; their conditions may differ.

System: glycosylated hemoglobin level (HbAlC)
Test: Clinical study of long term administration of ranolazine: HbA1C in patients having coronary disease
Format: in vivo, human
Source text: Baseline is in-hospital visit prior to hospitalization.

COc1ccccc1OCC(O)CN1CCN(CC(=O)Nc2c(C)cccc2C)CC1 (racemic) [Ranolazine, (±)-N-(2,6-dimethylphenyl)-4-[2-hydroxy-3-(2-methoxyphenoxy)-propyl]-1-piperazineacetamide]
Number of patients with HbA1c ≧7% (Diabetes at enrollment, n = 1098, Month 16): 63
Number of patients with HbA1c ≧7% (No Diabetes at enrollment, n = 2170, Final Visit): 92
Number of patients with HbA1c ≧7% (No Diabetes at enrollment, n = 2170, Month 4): 78
Number of patients with HbA1c ≧7% (No Diabetes at enrollment, n = 2170, Month 8): 72
Number of patients with HbA1c ≧7% (No Diabetes at enrollment, n = 2170, Month 16): 21
Effect on HbAlc levels (all patients treated, FIGS. 1 and 2): HbAlc lowering effect on all patients treated; also recorded: significantly lowers serum HbAlC levels
Effect on HbAlc levels (diabetic patients, FIG. 2): reduction in the amount of HbAlC levels
Effect on HbAlc levels (non-diabetic patients, FIG. 2): reduction in the amount of HbAlC levels
